Data on 17 compounds can be found in patent publication US6632824B2, “Aryl-8-azabicyclo[3.2.1]octanes for the treatment of depression” (Wyeth, priority 2001, dated 2003).

Counter-ions that a name gives are not always drawn.

One series has as its target T1, Human 5-HT Transporter (Homo sapiens, UniProt P31645).
T1 construct: endogenous in cells; host or cells: JAR human carcinoma cells, treated with staurosporine
Briefly: Inhibition of 3H-5-HT Uptake by Cells Possessing the Human 5-HT Transporter (HC 5HT Transporter). The format is cell-based. The method, then:
On the day of assay, vehicle, excess of fluoxetine, or test compound is added to various wells on the plate. All wells then receive ^3H-5-HT and are incubated at 37° C. for 5 min. The wells are then washed with ice cold 50 mM Tris HCl (pH 7.4) buffer and aspirated to remove free ^3H-5-HT. 25 μl of 0.25 M NaOH is then added to each well to lyse the cells and 75 μl scintillation cocktail (Microscint™ 20) added prior to quantitation on a Packard TopCount machine. Tubes with vehicle represent total possible uptake; radioactivity counted in tubes with fluoxetine represent nonspecific binding/uptake and is subtracted from the total possible uptake to give total possible specific uptake. […] Specific uptake is then expressed as a % of control values and is analyzed using nonlinear regression analysis (Prizm) to determine IC50 values.

A further series concerns the target T2, 5-HT transporter (Rattus norvegicus, UniProt P31652).
T2 construct: frontal cortical membranes prepared from male S.D. rats; from tissue; host or cells: rat frontal cortex membranes (male Sprague-Dawley)
Briefly: Rat Brain 3H-Paroxetine Binding Assay (RB 5HT Transporter). As to the method: Rat Brain ^3H-Paroxetine Binding Assay (RB 5HT Transporter):
This assay is used to determine a compound's affinity of the 5-HT transporter.
Briefly, frontal cortical membranes prepared from male S.D. rats are incubated with ^3H-parxetine (0.1 nM) for 60 min. at 25° C. All tubes contain either vehicle, test compound (one to eight concentrations), or a saturating concentration of fluoxetine (10 μM) to define […]. All reactions are terminated by the addition of ice cold Tris buffer followed by rapid filtration using a Tom Tech filtration device to separate bound from free ^3H-paroxetine.

A further series has as its target T3, human 5-HT1A receptor (Homo sapiens, UniProt P08908).
T3 construct: expressed in transfected cells
T3 sequence (P08908 1-422): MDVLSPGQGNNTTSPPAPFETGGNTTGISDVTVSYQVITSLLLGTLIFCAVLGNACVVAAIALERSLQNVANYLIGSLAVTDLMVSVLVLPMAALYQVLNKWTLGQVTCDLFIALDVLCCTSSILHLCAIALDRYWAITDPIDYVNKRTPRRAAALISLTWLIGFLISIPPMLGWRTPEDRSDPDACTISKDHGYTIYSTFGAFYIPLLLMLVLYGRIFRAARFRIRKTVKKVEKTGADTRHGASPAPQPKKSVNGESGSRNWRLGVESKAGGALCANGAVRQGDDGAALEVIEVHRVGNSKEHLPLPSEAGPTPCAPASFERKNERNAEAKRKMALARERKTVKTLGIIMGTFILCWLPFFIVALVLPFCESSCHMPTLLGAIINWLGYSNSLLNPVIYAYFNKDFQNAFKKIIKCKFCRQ
As to the kind of experiment: HC 5-HT1A binding assay ([3H]8-OH-DPAT radioligand binding, h5-HT1A.CHO cell membranes). The method, then: Cloning of Human 5-HT1A Receptor:
A stable Chinese hamster ovary cell line expressing the human 5-HT1A receptor subtype (h5-HT1A.CHO cells) is employed throughout this study. Cells are maintained in DMEM supplemented with 10% fetal calf serum, non-essential amino acids and penicillin/streptomycin.
Cells are grown to 95-100% confluency as a monolayer before membranes are harvested for binding studies. Cells are gently scraped from the culture plates, transferred to centrifuge tubes, and washed twice by centrifugation (2000 rpm for 10 min., 4° C.) in buffer (50 mM Tris; pH 7.5). The resulting pellets are aliquoted and placed at −80 C. On the day of assay, the cells are thawed on ice, and resuspended in buffer. Studies are conducted using [^3H]8-OH-DPAT as the radioligand. The binding assay is performed in 96-well microtiter plates in a final total volume of […] of buffer. […] Non-specific binding is determined in the presence of 10 μM 5HT. Saturation analysis is conducted by using [^3H]8-OH-DPAT at concentrations ranging from 0.3-30 nM. Following a 30 minute incubation at room temperature, the reaction is terminated by the addition of ice cold buffer and rapid filtration using a M-96 Brandel Cell Harvester (Gaithersburg, Md.) through a GF/B filter presoaked for 30 minutes in 0.5% polyethyleneimine.
^3H-Paroxetine Binding to Assess Affinity of Drugs for the Serotonin Transporter ([…]):
Briefly, frontal cortical membranes prepared from male S.D. rats are incubated with ^3H-paroxetine (0.1 nM) for 60 min at 25° C. All tubes contain either vehicle, test compound (one to eight concentrations), or a saturating concentration of fluoxetine (10 μM) to define […]. All reactions are terminated by the addition of ice cold Tris buffer followed by rapid filtration using a Tom Tech filtration device to separate bound from free ^3H-paroxetine.

The target in series [1] is T4, cloned human 5-HT1A receptors (Homo sapiens, UniProt P08908).
T4 construct: expressed in transfected cells
T4 sequence (P08908 1-422): T3 sequence (P08908 1-422)
As to the kind of experiment: Assessment of agonism/antagonism at the 5-HT1A receptor using [35S]-GTPγS binding. The class given is biochemical. The method, then:
Assessment of Agonism/Antagonism at the 5-HT1A Receptor using [^35S]-GTPγS Binding to Cloned Human 5-HT1A Receptors:
Briefly, 5-HT1A cloned receptor membrane fragments (as used for 5-HT1A receptor binding assays) are stored at −70° C. until needed. When needed, membranes are rapidly thawed, centrifuged at 40,000× g for 10 minutes and resuspended at 4° C. for 10 minutes in assay buffer (25 mM HEPES, 3 mM MgCl2, 100 mM NaCl, 1 mM EDTA, 10 uM GDP, […], pH 8.0). These membranes are then incubated for 30 min at 30° C. with [^35S]GTPgS (1 nM) in the presence of vehicle, test compound (one to eight concentrations), or excess 8-OH-DPAT to define maximum agonist response. All reactions are terminated by the addition of ice cold Tris buffer followed by rapid filtration using a Tom Tech® filtration device to separate bound from free [^35S]GTPgS. Agonists produce an increase in the amount of [^35S]GTPgS bound whereas antagonists produce no increase in binding. Bound radioactivity is counted and analyzed as above.

T2 sequence (P31652 whole entry): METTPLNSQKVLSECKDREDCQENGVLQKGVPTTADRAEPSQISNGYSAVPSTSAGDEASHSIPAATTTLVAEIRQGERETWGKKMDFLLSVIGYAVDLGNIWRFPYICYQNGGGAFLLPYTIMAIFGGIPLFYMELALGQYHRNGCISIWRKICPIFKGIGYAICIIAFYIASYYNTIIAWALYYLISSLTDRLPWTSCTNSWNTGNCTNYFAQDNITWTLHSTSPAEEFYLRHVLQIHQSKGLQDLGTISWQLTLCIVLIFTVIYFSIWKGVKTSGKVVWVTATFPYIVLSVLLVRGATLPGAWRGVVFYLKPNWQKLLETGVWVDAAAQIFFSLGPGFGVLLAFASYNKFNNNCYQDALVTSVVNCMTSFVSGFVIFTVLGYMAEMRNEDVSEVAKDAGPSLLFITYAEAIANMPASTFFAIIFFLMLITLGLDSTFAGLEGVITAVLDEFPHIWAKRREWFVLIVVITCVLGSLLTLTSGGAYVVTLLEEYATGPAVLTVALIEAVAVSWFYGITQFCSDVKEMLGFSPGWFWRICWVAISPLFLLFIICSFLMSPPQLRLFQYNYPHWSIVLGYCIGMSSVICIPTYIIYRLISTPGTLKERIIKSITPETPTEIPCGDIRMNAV
T1 sequence (P31645 whole entry): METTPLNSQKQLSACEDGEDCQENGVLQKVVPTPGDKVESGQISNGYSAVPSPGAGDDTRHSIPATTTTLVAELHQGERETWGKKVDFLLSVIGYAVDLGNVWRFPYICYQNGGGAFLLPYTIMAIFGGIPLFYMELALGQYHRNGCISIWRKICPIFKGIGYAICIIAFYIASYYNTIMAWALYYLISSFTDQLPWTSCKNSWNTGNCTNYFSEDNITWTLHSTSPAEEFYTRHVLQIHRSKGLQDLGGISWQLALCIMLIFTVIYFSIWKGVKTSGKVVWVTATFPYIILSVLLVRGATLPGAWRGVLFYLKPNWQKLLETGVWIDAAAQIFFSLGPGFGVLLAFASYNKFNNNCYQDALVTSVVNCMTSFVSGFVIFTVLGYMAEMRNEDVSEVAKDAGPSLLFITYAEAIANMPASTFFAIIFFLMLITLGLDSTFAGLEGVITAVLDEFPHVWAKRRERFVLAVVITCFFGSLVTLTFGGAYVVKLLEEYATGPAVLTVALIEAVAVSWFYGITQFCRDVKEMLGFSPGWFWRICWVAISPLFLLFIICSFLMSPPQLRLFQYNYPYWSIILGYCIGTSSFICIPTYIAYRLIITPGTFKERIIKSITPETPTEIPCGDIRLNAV

Consider `C1=C(c2ccc3ccccc3c2)CC2CCC1N2CCOc1cccc2c1OCCO2` (stereo not drawn) (as salt: oxalate) [Example 4, 8-[2-(2,3-Dihydro-benzo[1,4]dioxin-5-yloxy)-ethyl]-3-naphthalen-2-yl-8-aza-bicyclo[3.2.1]oct-2-ene], for which the melting point is 151 to 153 °C (dec.).

In turn, `c1ccc2cc(C3CC4CCC(C3)N4CCSc3cccc4cccnc34)ccc2c1` (stereo not drawn) [Example 18, 8-({2-[3-(2-Naphthyl)-8-azabicyclo[3.2.1]oct-8-yl]ethyl}sulfanyl)quinoline] gave a melting point of 200 to 203 °C. Moreover, the IC50 against Human 5-HT Transporter was determined as 3.5 nM. For the same compound, the Ki on 5-HT transporter stood at 0.06 nM. For the same compound, on human 5-HT1A receptor, the Ki worked out at 256 nM.

Take `C1=C(c2ccc3ccccc3c2)CC2CCC1N2CCOc1cccc2c1OCCO2` (stereo not drawn) [Example 4, 8-[2-(2,3-Dihydro-benzo[1,4]dioxin-5-yloxy)-ethyl]-3-naphthalen-2-yl-8-aza-bicyclo[3.2.1]oct-2-ene]: the IC50 against Human 5-HT Transporter was 21.7 nM. In addition, the Ki on 5-HT transporter worked out at 0.17 nM; at human 5-HT1A receptor, 329 nM.

In the case of `C1=C(c2ccc3ccccc3c2)CC2CCC1N2CCNc1cccc2cccnc12` (stereo not drawn) [Example 7, N-{2-[3-(2-Naphthyl)-8-azabicyclo[3.2.1]oct-2-en-8-yl]ethyl}-8-quinolinamine], the melting point was in the range of 199 to 200 °C. At 5-HT transporter, this compound gave a Ki of 1.61 nM.

With `C1=C(c2c[nH]c3ccccc23)CC2CCC1N2CCOc1cccc2ncccc12` (stereo not drawn) [Example 3, 2-[3-(1H-Indol-3-yl)-8-azabicyclo[3.2.1]oct-2-en-8-yl]ethyl 5-quinolinyl Ether], the results for the IC50 (in series [1]; on Human 5-HT Transporter) were 1170 nM and 86.5 nM, respectively. The Emax in series [1] (excess 8-OH-DPAT defines maximum agonist response, read-out: [35S]GTPgS Emax) was 0%. Besides, the Ki on 5-HT transporter was found to be 2.27 nM; on human 5-HT1A receptor, 173 nM.

For the compound `FC(F)(F)c1cccc(OCCN2C3C=C(c4ccc5ccccc5c4)CC2CC3)c1` (stereo not drawn) (as salt: oxalate) [Example 11, 3-Naphthalen-2-yl-8-[2-(3-trifluoromethyl-phenoxy)-ethyl]-8-aza-bicyclo[3.2.1]oct-2-ene], the melting point was 128 to 130 °C (dec.).

`c1ccc2cc(C3CC4CCC(C3)N4CCOc3cccc4cccnc34)ccc2c1` (stereo not drawn) [Example 17, 8-{2-[3-(2-Naphthyl)-8-azabicyclo[3.2.1]oct-8-yl]ethoxy}quinoline]: the melting point fell in the range of 110 to 113 °C. Besides, at 5-HT transporter, the affinity corresponds to a Ki of 0.13 nM.

On to `c1ccc2cc(C3CC4CCC(C3)N4CCOc3cccc4[nH]ccc34)ccc2c1` (stereo not drawn) (as salt: oxalate) [Example 12, 4-[2-(3-Naphthalen-2-yl-8-aza-bicyclo[3.2.1]oct-8-yl)-ethoxy]-1H-indole], for which the melting point is 119 to 120 °C (dec.).

At Human 5-HT Transporter, `c1ccc2cc(C3CC4CCC(C3)N4CCOc3cccc4[nH]ccc34)ccc2c1` (stereo not drawn) [Example 12, 4-[2-(3-Naphthalen-2-yl-8-aza-bicyclo[3.2.1]oct-8-yl)-ethoxy]-1H-indole] returned an IC50 of 35.7 nM. This compound also returned a Ki on 5-HT transporter of 0.39 nM.

Regarding `COc1cc(OCCN2C3C=C(c4ccc5ccccc5c4)CC2CC3)c2ncccc2c1` (stereo not drawn) (as salt: oxalate), the melting point is 100 to 103 °C.

For `FC(F)(F)c1cccc(OCCN2C3C=C(c4ccc5ccccc5c4)CC2CC3)c1` (stereo not drawn) [Example 11, 3-Naphthalen-2-yl-8-[2-(3-trifluoromethyl-phenoxy)-ethyl]-8-aza-bicyclo[3.2.1]oct-2-ene], inhibition at Human 5-HT Transporter was half-maximal at 191 nM (IC50). This compound came in with a Ki at 5-HT transporter of 34 nM.

The compound `Clc1cc(NCCN2C3C=C(c4ccc5ccccc5c4)CC2CC3)c2ncccc2c1` (stereo not drawn) [Example 6, 6-Chloro-N-{2-[3-(2-naphthyl)-8-azabicyclo[3.2.1]oct-2-en-8-yl]ethyl}-8-quinolinamine] gave a melting point of 205 to 206 °C. This compound yielded a Ki at 5-HT transporter of 7.5 nM.

The compound `COc1cc(NCCN2C3C=C(c4ccc5ccccc5c4)CC2CC3)c2ncccc2c1` (stereo not drawn) [Example 5, 6-Methoxy-N-{2-[3-(2-naphthyl)-8-azabicyclo[3.2.1]oct-2-en-8-yl]ethyl}-8-quinolinamine] displayed an IC50 on Human 5-HT Transporter of 42.8 nM. This compound also showed a Ki at 5-HT transporter of 2.67 nM.

The compound `COc1cc(NCCN2C3C=C(c4ccc5ccccc5c4)CC2CC3)c2ncccc2c1` (stereo not drawn) (as salt: oxalate) [Example 5, 6-Methoxy-N-{2-[3-(2-naphthyl)-8-azabicyclo[3.2.1]oct-2-en-8-yl]ethyl}-8-quinolinamine] registered a melting point of 179 to 182 °C.

Regarding `COc1ccc2cc(C3=CC4CCC(C3)N4CCOc3cccc4[nH]ccc34)ccc2c1` (stereo not drawn) (as salt: oxalate) [Example 10, 4-{2-[3-(6-Methoxy-naphthalen-2-yl)-8-aza-bicyclo[3.2.1]oct-2-en-8-yl]-ethoxy}-1H-indole], the melting point was 130 to 132 °C (dec.).

`C1=C(c2c[nH]c3ccccc23)CC2CCC1N2CCOc1cccc2ncccc12` (stereo not drawn) (as salt: oxalate) [Example 3, 2-[3-(1H-Indol-3-yl)-8-azabicyclo[3.2.1]oct-2-en-8-yl]ethyl 5-quinolinyl Ether]: the melting point is 91 to 93 °C (dec.).

On Human 5-HT Transporter, `COc1ccc2cc(C3=CC4CCC(C3)N4CCOc3cccc4[nH]ccc34)ccc2c1` (stereo not drawn) [Example 10, 4-{2-[3-(6-Methoxy-naphthalen-2-yl)-8-aza-bicyclo[3.2.1]oct-2-en-8-yl]-ethoxy}-1H-indole] showed an IC50 of 58.6 nM. Further, the Ki at 5-HT transporter came to 1.11 nM.
